Test results from ChEMBL document CHEMBL5113438, “Discovery of highly potent and selective CRBN-recruiting EGFRL858R/T790M degraders in vivo” (Eur J Med Chem, 2022).
The source made the active and inactive calls. The rule behind the calls is not given here.

Tests used:
NCI-H1299 [1] = test: Induction of apoptosis in human NCI-H1299 cells assessed as late apoptotic cells at 1.0 uM incubated for 48 hrs by AnnexinV-FITC/propidium iodide staining based flow cytometry analysis (reference value: 1.53 % ); format: functional
NCI-H1975 [2] = test: Induction of apoptosis in human NCI-H1975 cells assessed as necrotic cells at 1.0 uM incubated for 48 hrs by AnnexinV-FITC/propidium iodide staining based flow cytometry analysis (reference value: 3.28 % ); format: functional
[3] = Tmax in Sprague-Dawley rat at 10 mg/kg, ip measured upto 24 hrs by LC-MS/MS analysis; format: ADME, organism-based; conditions: in vivo
NCI-H1299 [4] = test: Induction of apoptosis in human NCI-H1299 cells assessed as viable cells at 0.1 uM incubated for 48 hrs by AnnexinV-FITC/propidium iodide staining based flow cytometry analysis (reference value: 98.05 % ); format: functional; conditions: read-out: Activity
[5] = Half life in Sprague-Dawley rat at 1 mg/kg, iv measured upto 24 hrs by LC-MS/MS analysis; format: ADME, organism-based; conditions: in vivo
NCI-H1299 [6] = test: Induction of apoptosis in human NCI-H1299 cells assessed as early apoptotic cells at 0.1 uM incubated for 48 hrs by AnnexinV-FITC/propidium iodide staining based flow cytometry analysis (reference value: 0.11 % ); format: functional
[7] = AUC (0 to infinity) in Sprague-Dawley rat at 1 mg/kg, iv measured upto 24 hrs by LC-MS/MS analysis; format: ADME, organism-based; design: dose 1 mg/kg, time < 24 hrs, route iv; conditions: in vivo
[8] = AUC (0 to t) in Sprague-Dawley rat at 1 mg/kg, iv measured upto 24 hrs by LC-MS/MS analysis; format: ADME, organism-based; design: time < 24 hrs, dose 1 mg/kg, route iv; conditions: in vivo
[9] = Selectivity ratio IC50 for human NCI-H1299 cells expressing wild type EGFR to human NCI-H1975 cells expressing EGFR L858R/T790M; format: functional
L02 = test: Cytotoxicity activity against human L02 cells upto 300 uM incubated for 72 hrs by CCK-8 assay; format: toxicity, cell-based; conditions: l02, 72 h
[10] = Toxicity in BALB/c mouse xenografted with human NCI-H1975 cells assessed as drug tolerability at 10 mg/kg, ip administered once daily for 24 days; format: organism-based; conditions: in vivo, 576 h, time 24 day
[11] = tested on: Epidermal growth factor receptor (Homo sapiens), P00533 [L858R,T790M]; test: Inhibition of EGFR L858R/T790M mutant phosphorylation in human NCI-H1975 cells at 1 uM measured after 8 hrs by Western blot assay; format: cell-based
NCI-H1975 [12] = test: Induction of apoptosis in human NCI-H1975 cells assessed as late apoptotic cells at 0.1 uM incubated for 48 hrs by AnnexinV-FITC/propidium iodide staining based flow cytometry analysis (reference value: 1.35 % ); format: functional
[13] = target: Protein cereblon/Epidermal growth factor receptor (Homo sapiens) (UniProt P00533+Q96SW2); test: Protac activity at CRBN/EGFR in human NCI-H1975 cells assessed as induction of EGFR degradation pretreated for 12 hrs followed by compound washout and replaced with fresh medium for 1 hr and measured after 48 hrs post compound washout by Western blot analysis; format: cell-based

SMILES	Activity (NCI-H1299 [1])	Activity (NCI-H1975 [2])	Tmax [3]	viability at 0.1 µM (NCI-H1299 [4])	half-life [5]	Activity (NCI-H1299 [6])	AUC(0-inf) ([7]; Sprague-Dawley)	AUC(0-t) at 24 h [8]	Ratio IC50 [9]	Activity (L02)	Activity [10]	inhibition (INH) [11]	Activity (NCI-H1975 [12])	AUC ([7]; 24 h)	Activity [13]
C#CCN(CCC(=O)Nc1cccc2c1CN(C1CCC(=O)NC1=O)C2=O)CCN(C)c1cc(OC)c(Nc2nccc(-c3cn(C)c4ccccc34)n2)cc1NC(=O)C=C (configuration not stated)	2.15%	14.3%	4.67 h	97.7%	2.29 h	0.11%	461 ng·h/mL	460 ng·h/mL	1721	Non-Toxic	Non-Toxic	58%	6.59%	–	–
C#CCN(CCCC(=O)Nc1cccc2c1CN(C1CCC(=O)NC1=O)C2=O)CCN(C)c1cc(OC)c(Nc2nccc(-c3cn(C)c4ccccc34)n2)cc1NC(=O)C=C (configuration not stated)	0.37%	15.2%	4.5 h	98%	2.64 h	0.22%	–	483 ng·h/mL	2137	Non-Toxic	Non-Toxic	56%	4.8%	973 ng·h/mL	Active
